Test results as given in article PMC12573178, “Substrate-Guided Development of HDAC11-Selective Inhibitors Featuring α‑Amino Amide Zinc-Binding Groups” (ACS Omega, 2025).

Molecular target: T1, SIRT2 (Homo sapiens, UniProt Q8IXJ6)
T1 sequence (Q8IXJ6 1-389): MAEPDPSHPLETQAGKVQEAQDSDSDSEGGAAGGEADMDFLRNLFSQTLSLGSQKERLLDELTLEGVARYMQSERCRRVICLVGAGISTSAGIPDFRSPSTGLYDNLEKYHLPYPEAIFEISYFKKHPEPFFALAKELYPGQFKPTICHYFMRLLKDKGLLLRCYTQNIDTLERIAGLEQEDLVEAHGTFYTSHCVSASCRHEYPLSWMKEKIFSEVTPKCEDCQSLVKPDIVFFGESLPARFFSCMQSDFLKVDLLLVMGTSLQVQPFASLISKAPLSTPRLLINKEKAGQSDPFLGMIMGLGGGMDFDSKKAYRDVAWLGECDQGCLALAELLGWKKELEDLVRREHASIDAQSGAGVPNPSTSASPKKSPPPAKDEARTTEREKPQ
Assay: SIRT2 inhibition assays (continuous / discontinuous demyristoylation)
Type: biochemical
Procedure: Inhibition of the enzymatic activity of HDACs was performed continuously for HDAC8, HDAC11, and SIRT2 and discontinuously for SIRT2, 3, and 6 using adequate substrates as described previously. , Experimental details are given in the Supporting Information.
A. HDAC and SIRT deacylase activity assays
Continuous in vitro HDAC inhibition assays
The inhibitors were tested using 384-well plates (GreinerONe). After 5 min of incubation of the inhibitors together with the respective enzymes (HDAC8 = 2 nM, HDAC11 = 20 nM, SIRT2 = 1 nM), the reactions were always started by the addition of substrate for the Zn2+-dependent HDAC and by the addition of NAD+ for SIRT2. […]
The fluorescence increase was followed for 1 h with two reads per min using a PerkinElmer Envision 2104 multilabel plate reader. […] The measured values were normalized accordingly. […] The data were fitted using the GraphPad Prism8 software and kinetic values calculated through non-linear regression analysis. […]
Reactions were stopped after 20 min by adding a constant volume of reaction mixture to stop solution (5 % acetonitrile (ACN) (v/v) and 1 % trifluoroacetic acid (TFA) (v/v) in dd. H 2O). The samples were analysed using HPLC-UV/VIS at λ Abs = 220 nm, λ Ex = 320 nm und λ Em = 420 nm. […]
100 nM, SIRT3: 200 nM, SIRT6: 500 nM). […] The samples were analysed using HPLC-UV/VIS at λ Abs = 360 nm. […]

IC50: > 20 µM | inhibition at 50 µM (50 μM 31): 41.5%
SMILES: CCCCCCCCCCCCSC[C@@H](N)C(=O)NCCCC[C@@H]1NC(=O)[C@H](CCC(N)=O)NC1=O [Compound 31]
